The source made the active and inactive calls.
How the values were obtained:
[1] = inhibitors of intracellular T. cruzi replication, confirmation, NIH3T3 host cells, beta-gal luminescence (AID 2044); format: functional, cell-based;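 also: intracellular parasites grown in NIH/3T3 mouse fibroblasts as host cells; luminescent beta-galactosidase reporter signal from transgenic T. cruzi replicating inside host cells; inhibitors lower the luminescence signal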
[2] = cytotoxicity toward NIH3T3 fibroblasts, dose response, counter-screen, cell-based, ATP luminescence, mouse fibroblasts (AID 2010); format: functional;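 also: cells exposed to compound for about 90 hours before reading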
[3] = HEK293T cytotoxicity, dose response, cytotoxicity control for miR-122 modulator project, cell-based, activator set, cherry-pick (AID 720690); format: functional;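 also: HEK293T human cells scored for general mammalian cytotoxicity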
[4] = target: T1, Rac GTPase-activating protein 1 (Homo sapiens, UniProt Q9H0H5); assay: MgcRacGAP GTPase-activating activity inhibitors, confirmation, biochemical, ADP Hunter fluorescence, primary and confirmatory (AID 624330); format: functional
T1 sequence (Q9H0H5 whole entry): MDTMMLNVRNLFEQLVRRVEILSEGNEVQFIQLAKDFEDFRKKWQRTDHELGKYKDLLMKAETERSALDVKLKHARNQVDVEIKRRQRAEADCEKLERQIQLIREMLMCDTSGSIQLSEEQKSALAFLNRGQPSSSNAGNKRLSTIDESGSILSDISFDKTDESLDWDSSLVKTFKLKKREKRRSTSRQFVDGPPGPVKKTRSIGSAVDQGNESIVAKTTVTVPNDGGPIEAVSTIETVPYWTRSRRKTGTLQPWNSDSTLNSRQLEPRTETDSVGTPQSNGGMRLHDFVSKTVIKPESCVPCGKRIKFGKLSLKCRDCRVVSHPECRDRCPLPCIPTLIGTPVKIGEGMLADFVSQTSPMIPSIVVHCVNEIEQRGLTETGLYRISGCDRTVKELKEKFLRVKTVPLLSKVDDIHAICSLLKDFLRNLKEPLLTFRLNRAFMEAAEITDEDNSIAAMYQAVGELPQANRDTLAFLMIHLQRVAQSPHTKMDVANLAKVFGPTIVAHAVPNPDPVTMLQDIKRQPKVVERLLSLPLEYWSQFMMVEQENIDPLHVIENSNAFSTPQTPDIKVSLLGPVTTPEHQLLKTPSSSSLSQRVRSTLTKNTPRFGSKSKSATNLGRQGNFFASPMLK

fMet-Leu-Phe receptor = fMet-Leu-Phe receptor (Homo sapiens, UniProt P21462); assay: FPR ligands, dose response (AID 519); format: functional
fMet-Leu-Phe receptor, sequence (P21462 whole entry): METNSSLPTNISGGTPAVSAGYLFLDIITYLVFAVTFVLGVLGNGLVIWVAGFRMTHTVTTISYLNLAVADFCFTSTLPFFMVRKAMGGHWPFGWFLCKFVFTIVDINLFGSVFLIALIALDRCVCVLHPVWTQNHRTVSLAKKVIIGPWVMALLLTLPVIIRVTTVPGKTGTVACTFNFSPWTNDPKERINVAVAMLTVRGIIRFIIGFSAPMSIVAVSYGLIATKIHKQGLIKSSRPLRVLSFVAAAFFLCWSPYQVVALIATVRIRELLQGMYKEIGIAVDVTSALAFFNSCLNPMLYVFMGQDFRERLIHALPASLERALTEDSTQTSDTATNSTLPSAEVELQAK

[5] = target: Luciferin 4-monooxygenase (Photinus pyralis, UniProt P08659); assay: firefly luciferase enzyme inhibitors, dose response, biochemical, luminescence (AID 1891)
Luciferin 4-monooxygenase, sequence (P08659 whole entry): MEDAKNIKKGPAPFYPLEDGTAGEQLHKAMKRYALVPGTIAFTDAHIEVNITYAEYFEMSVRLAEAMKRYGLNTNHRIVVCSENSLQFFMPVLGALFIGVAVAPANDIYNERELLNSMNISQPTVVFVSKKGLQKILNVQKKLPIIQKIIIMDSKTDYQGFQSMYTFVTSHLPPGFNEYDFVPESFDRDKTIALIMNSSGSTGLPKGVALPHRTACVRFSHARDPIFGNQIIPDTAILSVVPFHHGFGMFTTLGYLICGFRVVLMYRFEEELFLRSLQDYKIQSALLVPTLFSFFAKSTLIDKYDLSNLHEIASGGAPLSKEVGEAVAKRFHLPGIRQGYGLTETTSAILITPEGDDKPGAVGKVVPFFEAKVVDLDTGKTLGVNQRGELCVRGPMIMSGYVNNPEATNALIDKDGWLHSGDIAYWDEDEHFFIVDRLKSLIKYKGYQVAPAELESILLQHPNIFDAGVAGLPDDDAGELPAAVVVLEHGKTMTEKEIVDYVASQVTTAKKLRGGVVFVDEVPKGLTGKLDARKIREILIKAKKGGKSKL

[6] = Luminescence Cell-Based Dose Confirmation HTS to Identify Inhibitors of Platelet Dense Granule Release. [Related pubchem assays: 1663 (Primary HTS), 1678 (Summary of Project)]; format: functional
[7] = HepG2 cell cytotoxicity, dose response, cytotoxicity control, ATP luminescence, cherry-pick, activator set 2 (AID 1053143); format: functional, cell-based
Aminopeptidase N = target: T2, Aminopeptidase N (Plasmodium falciparum FcB1/Columbia, UniProt O96935); assay: P. falciparum M1AAP inhibitors, biochemical, fluorogenic H-Leu-NHMec substrate, 1536-well (AID 1445); parameters: species or system Plasmodium falciparum 3D7, 3D7
T2 sequence (O96935 whole entry): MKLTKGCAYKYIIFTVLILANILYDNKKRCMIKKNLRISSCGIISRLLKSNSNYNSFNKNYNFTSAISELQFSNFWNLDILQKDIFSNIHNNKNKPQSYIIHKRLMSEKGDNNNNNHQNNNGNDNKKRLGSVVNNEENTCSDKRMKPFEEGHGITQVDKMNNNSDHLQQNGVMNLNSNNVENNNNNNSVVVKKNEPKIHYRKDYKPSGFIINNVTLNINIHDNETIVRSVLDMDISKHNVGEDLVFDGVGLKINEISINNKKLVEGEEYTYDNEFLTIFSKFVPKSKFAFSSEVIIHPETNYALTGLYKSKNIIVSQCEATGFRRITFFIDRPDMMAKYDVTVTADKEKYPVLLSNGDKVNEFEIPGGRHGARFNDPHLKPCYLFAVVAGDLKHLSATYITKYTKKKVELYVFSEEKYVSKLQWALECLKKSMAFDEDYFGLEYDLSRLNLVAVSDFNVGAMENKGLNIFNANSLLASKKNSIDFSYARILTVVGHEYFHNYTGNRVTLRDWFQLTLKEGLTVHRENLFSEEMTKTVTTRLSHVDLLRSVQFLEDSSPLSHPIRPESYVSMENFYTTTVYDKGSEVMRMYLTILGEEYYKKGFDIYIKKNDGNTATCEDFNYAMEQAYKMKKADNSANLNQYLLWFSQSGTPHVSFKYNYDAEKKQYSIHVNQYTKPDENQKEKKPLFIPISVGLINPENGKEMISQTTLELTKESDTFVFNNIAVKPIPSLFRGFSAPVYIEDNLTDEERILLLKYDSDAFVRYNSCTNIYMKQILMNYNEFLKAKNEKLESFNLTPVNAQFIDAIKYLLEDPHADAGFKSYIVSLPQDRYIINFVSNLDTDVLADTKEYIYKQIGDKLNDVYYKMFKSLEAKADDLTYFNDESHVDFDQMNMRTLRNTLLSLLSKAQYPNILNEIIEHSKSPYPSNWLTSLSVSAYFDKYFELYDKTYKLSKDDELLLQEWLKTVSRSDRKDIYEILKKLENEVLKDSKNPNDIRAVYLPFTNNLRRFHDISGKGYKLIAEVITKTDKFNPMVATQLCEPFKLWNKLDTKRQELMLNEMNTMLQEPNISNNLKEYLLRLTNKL

[8] = microbe, parasite or virus in culture; format: functional; conditions: Mycobacterium tuberculosis
[9] = Vero E6 cell cytotoxicity, dose response, cytotoxicity control for non-replicating M. tuberculosis project, secondary assay (AID 492998); format: functional, VeroE6; conditions: Vero C1008
cells = format: functional
[10] = Artemis endonuclease inhibitor potency, dose response, biochemical, fluorescence intensity (AID 720701); format: functional;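 also: Artemis endonuclease enzyme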
[11] = Shn3 3'UTR reporter inhibitors, dose response, cell-based, Clone20 osteoblasts, firefly luciferase, cherry-picked (AID 624132); format: functional;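 also: firefly luciferase luminescence from reporter carrying the Shn3 3'UTR in osteoblasts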
[12] = control 3'UTR Renilla luciferase suppression, dose response, counter-screen for Shn3 inhibitor project, cell-based, Clone20-Shn3RL, cherry-picked (AID 624133); format: functional
[13] = reduction of Shn3 3'UTR firefly luciferase signal, dose response, Schnurri-3 inhibitor project, cell-based, Clone20 osteoblasts, cherry-pick, set 2 (AID 720490); format: functional;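 also: actives lower the luminescence signal as inhibitors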
[14] = inhibitors of control Renilla luciferase reporter, dose response, counter-screen for Shn3 3'UTR targeting project, Clone20-Shn3RL cells, dual-Glo, cherry-pick, set 2 (AID 720724); format: functional, cell-based; conditions: Dual-Go Shn3RL
Paired box protein Pax-8 = Paired box protein Pax-8 (Homo sapiens, UniProt Q06710); assay: inhibitors of PAX8-driven TPO luciferase reporter, dose response, RMG-I cells, cherry-pick (AID 687027); format: functional, cell-based;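 also: luciferase reporter driven by Pax8 target thyroperoxidase promoter measured by SteadyGlo luminescence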
Paired box protein Pax-8, sequence (Q06710 whole entry): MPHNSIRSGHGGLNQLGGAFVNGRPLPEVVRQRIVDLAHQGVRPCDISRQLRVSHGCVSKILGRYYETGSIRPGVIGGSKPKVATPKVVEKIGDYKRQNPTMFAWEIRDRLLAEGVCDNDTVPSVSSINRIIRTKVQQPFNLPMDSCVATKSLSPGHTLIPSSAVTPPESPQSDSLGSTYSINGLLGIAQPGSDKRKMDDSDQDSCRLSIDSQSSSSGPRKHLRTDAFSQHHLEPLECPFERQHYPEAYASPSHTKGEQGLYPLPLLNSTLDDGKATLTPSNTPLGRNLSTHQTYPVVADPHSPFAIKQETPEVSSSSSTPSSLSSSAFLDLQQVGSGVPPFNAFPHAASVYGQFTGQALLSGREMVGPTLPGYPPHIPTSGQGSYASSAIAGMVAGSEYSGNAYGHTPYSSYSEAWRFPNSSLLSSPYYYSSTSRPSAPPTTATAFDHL

[15] = A2780 ovarian cancer cell cytotoxicity, dose response, cytotoxicity control, plate reader, dry powder samples (AID 743046); format: functional, cell-based
[16] = NIH:OVCAR-3 ovarian cancer cell cytotoxicity, dose response, PAX8 inhibitor project, plate reader, dry powder samples (AID 743044); format: functional, cell-based
[17] = IGROV1 ovarian cancer cell cytotoxicity, dose response, PAX8 inhibitor project, plate reader, dry powder samples (AID 743043); format: functional, cell-based; conditions: IGROV-1
[18] = cytotoxicity in OVCAR8 ovarian cancer cells, dose response, PAX8 project, cell-based, plate reader, dry powder samples (AID 743197); format: functional; conditions: OVCAR-8
[19] = inhibitors of HIV Env-driven cell fusion, dose response, cherry-pick (AID 652057); format: functional, cell-based
[20] = ZM109 Env clade C HIV-1 fusion inhibitors, dose response, HeLa effector, CEM target cells, luciferase, cherry-pick (AID 652058); format: functional, cell-based
[21] = inhibitors of clade B AD8 Env fusion, dose response, cell-based, cherry-pick (AID 652062); format: functional;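 also: luciferase signal from cell-cell fusion driven by HIV-1 clade B AD8 Env; potency is for inhibitors of fusion seen as a drop in luminescence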
[22] = CEM21 cell cytotoxicity, dose response, cytotoxicity control, plate reader, dry powder (AID 687026); format: functional, cell-based
[23] = A Cell-Based Confirmatory Screen for Compounds that Inhibit VEEV, TC-83 (8).; format: functional
[24] = target: Potassium channel subfamily K member 9 (Homo sapiens, UniProt Q9NPC2); assay: TASK3 (KCNK9) channel inhibitors, thallium flux, SAR follow-up, selectivity assay for TASK1 inhibitor project, cell-based, FluxOR thallium flux, concentration-response (AID 652211); format: functional;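 also: potency is for inhibitors of the channel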
Potassium channel subfamily K member 9, sequence (Q9NPC2 whole entry): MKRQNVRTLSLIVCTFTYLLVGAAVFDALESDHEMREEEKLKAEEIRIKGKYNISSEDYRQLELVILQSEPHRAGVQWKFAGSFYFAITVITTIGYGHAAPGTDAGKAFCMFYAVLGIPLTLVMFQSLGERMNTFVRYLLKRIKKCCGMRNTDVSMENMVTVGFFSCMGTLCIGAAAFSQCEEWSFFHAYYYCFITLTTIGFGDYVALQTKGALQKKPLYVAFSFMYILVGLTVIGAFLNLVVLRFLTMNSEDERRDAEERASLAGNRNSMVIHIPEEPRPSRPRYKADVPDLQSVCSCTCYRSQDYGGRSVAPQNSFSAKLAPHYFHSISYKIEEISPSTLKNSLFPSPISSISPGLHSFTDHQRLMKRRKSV

[25] = target: Potassium channel subfamily K member 3 (Homo sapiens, UniProt O14649); assay: TASK1 (KCNK3) potassium channel inhibitors, SAR follow-up, CHO cells, FluxOR thallium flux (AID 652212); format: functional
Potassium channel subfamily K member 3, sequence (O14649 whole entry): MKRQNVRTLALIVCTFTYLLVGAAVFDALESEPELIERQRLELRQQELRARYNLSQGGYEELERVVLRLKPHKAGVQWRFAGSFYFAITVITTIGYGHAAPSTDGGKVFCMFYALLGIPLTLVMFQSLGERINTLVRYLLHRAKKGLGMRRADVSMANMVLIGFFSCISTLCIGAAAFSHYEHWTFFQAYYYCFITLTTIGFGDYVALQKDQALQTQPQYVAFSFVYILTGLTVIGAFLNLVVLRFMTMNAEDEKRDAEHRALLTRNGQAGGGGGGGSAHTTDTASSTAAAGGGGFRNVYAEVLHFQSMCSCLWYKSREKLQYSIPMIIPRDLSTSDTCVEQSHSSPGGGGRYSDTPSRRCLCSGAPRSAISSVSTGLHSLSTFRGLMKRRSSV

[26] = target: Delta-type opioid receptor (Homo sapiens, UniProt P41143); assay: Late-stage results from the probe development effort to identify antagonists of OPRK1: fluorescence-based cell-based dose response OPRD1 counterscreen.; format: functional
Delta-type opioid receptor, sequence (P41143 whole entry): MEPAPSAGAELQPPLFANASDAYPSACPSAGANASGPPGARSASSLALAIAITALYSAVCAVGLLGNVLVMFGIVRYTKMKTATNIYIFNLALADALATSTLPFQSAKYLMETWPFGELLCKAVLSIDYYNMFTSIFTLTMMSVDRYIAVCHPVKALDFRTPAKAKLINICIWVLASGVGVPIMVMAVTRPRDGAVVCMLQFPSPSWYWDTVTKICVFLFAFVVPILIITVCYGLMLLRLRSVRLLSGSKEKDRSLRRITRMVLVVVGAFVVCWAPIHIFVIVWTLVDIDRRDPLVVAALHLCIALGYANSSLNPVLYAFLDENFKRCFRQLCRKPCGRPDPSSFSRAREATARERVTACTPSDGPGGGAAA

Mu-type opioid receptor = Mu-type opioid receptor (Homo sapiens, UniProt P35372); assay: Late-stage results from the probe development effort to identify antagonists of OPRK1: luminescence-based cell-based dose response OPRM1 counterscreen.; format: functional
Mu-type opioid receptor, sequence (P35372 whole entry): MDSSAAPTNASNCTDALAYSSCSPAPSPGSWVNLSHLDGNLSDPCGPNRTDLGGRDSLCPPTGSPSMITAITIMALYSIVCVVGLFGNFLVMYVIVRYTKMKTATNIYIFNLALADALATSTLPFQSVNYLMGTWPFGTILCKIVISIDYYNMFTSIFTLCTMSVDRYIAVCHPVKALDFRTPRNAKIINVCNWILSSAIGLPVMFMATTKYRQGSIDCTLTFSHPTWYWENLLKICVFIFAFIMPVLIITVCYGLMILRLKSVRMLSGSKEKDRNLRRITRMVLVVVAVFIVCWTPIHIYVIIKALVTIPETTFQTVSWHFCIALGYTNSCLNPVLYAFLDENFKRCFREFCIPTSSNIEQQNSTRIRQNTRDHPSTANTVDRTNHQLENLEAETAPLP

[27] = Late-stage results from the probe development effort to identify antagonists of arginine vasopressin receptor 1a (AVPR1a): fluorescence-based cell-based dose response AVPR1a inhibition assay.; format: functional
Vasopressin V1b receptor = Vasopressin V1b receptor (Homo sapiens, UniProt P47901); assay: Late-stage results from the probe development effort to identify antagonists of arginine vasopressin receptor 1a (AVPR1a): fluorescence-based cell-based dose response AVPR1b inhibition counterscreen assay.; format: functional
Vasopressin V1b receptor, sequence (P47901 whole entry): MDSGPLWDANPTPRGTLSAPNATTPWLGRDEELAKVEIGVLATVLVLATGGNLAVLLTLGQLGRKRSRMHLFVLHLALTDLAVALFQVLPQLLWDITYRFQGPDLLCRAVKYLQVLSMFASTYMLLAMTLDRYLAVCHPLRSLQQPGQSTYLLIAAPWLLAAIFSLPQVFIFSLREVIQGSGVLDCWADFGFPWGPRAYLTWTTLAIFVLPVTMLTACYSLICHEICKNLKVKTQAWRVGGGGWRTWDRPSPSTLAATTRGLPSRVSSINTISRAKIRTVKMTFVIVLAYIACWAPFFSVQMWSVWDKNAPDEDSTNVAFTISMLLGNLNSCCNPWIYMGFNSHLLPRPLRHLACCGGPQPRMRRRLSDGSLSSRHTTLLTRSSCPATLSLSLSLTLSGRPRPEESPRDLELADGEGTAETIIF

Vasopressin V2 receptor = Vasopressin V2 receptor (Homo sapiens, UniProt P30518); assay: Late-stage results from the probe development effort to identify antagonists of arginine vasopressin receptor 1a (AVPR1a): fluorescence-based cell-based dose response AVPR2 inhibition counterscreen assay.; format: functional
Vasopressin V2 receptor, sequence (P30518 whole entry): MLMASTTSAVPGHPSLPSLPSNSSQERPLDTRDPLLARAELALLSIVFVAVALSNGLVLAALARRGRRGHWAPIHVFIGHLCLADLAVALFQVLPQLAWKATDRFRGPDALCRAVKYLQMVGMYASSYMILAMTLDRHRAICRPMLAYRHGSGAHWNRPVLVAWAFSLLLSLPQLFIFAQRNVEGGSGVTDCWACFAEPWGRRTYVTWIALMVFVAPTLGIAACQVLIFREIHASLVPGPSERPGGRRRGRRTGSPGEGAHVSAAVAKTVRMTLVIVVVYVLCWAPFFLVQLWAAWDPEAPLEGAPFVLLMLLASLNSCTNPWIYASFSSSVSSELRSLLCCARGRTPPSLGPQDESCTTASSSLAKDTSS

[28] = Late-stage results from the probe development effort to identify antagonists of arginine vasopressin receptor 1a (AVPR1a): fluorescence-based cell-based dose response OXTR inhibition counterscreen assay.; format: functional
[29] = A375 melanoma cell viability loss, dose response, counter-screen for MITF inhibitor project, CellTiter-Glo luminescence, dry powder, set 4 (AID 624364); format: functional, cell-based; conditions: A-375;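 also: A375 melanoma cells are MITF independent so this is a counter screen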
[30] = A375 melanoma cell cytotoxicity, dose response, counter-screen for MITF inhibitor project, CellTiter-Glo luminescence, dry powder, set 2 (AID 624489); format: functional, cell-based; conditions: A-375;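 also: actives are compounds lowering A375 viability meaning general cytotoxicity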
[31] = target: NAD-dependent protein deacylase sirtuin-5, mitochondrial (Homo sapiens, UniProt Q9NXA8); assay: SIRT5 deacylase inhibitors, dose response, biochemical, fluorescence imaging, cherry-pick, set 6 (AID 720597)
NAD-dependent protein deacylase sirtuin-5, mitochondrial, sequence (Q9NXA8 whole entry): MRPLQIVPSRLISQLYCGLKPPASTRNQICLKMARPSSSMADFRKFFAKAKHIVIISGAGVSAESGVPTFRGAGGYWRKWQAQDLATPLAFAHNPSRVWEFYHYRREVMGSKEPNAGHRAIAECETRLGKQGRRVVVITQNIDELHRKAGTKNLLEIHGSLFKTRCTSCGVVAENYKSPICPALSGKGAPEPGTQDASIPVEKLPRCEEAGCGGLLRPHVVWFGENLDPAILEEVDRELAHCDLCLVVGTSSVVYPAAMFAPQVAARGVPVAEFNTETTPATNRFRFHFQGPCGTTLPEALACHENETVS

[32] = inhibitors of fibronectin matrix deposition, dose response, AH1F cells, Alexa488-FN fluorescence, cherry-picks (AID 1035475); format: functional, cell-based

O=C(Nc1nc(-c2cc3ccccc3o2)cs1)c1ccc(S(=O)(=O)N2CCCC2)cc1
EC50 [1]: 4.21 µM (active)
EC50 [2]: > 30 µM (not active)
AC50 [3]: 10.9 µM (active)

CCCN=C(S)Nc1ccc(Nc2ccccc2)cc1
IC50 [4]: 82.4 µM (active)
Ki (fMet-Leu-Phe receptor): > 66.7 µM (inactive)

Cc1ccccc1Nc1nc(N)c2ccccc2n1
EC50 [5]: 1.26 µM (active)
EC50 [6]: 3.1 µM (active)
AC50 [7]: 26 µM (active)

Cc1cc(Cl)ccc1OCCCC(=O)NO
IC50 (Aminopeptidase N): 43.1 µM (active)
CC50 [8]: 29.4 µM (active)
CC50 [9]: 18.9 µM (active)
IC50 (cells): 27.9 µM (active)
IC50 [10]: 1.59 µM (active)

CCOc1ccc(Cn2nnc(C(=O)Nc3cc(OC)cc(OC)c3)c2N)cc1
AC50 [11]: 5.3 µM (active)
AC50 [12]: 26.9 µM (active)
AC50 [13]: 9.37 µM (active)
AC50 [14]: 38.5 µM (active)

C[C@@H]1CCCCO[C@@H](CN(C)Cc2ccccc2)[C@H](C)CN([C@@H](C)CO)C(=O)c2cc(NC(=O)Nc3ccc(C(F)(F)F)cc3)ccc2O1
AC50 (Paired box protein Pax-8): 10.8 µM (active)
AC50 [15]: 44.6 µM (active)
AC50 [16]: 23.1 µM (active)
AC50 [17]: 47.9 µM (active)
AC50 [18]: 42.2 µM (active)

Cc1ccc(S(=O)(=O)Nc2cccc3c2O[C@@H](CN(C)Cc2ccc(Cl)c(Cl)c2)[C@@H](C)CN([C@H](C)CO)C3=O)cc1
AC50 [19]: 12.1 µM (active)
AC50 [20]: 2.75 µM (active)
AC50 [21]: 65.4 µM (active)
AC50 [22]: 19.2 µM (active)

CN1CCN(C)/C(=N/c2ccc(C#N)cc2C(=O)Nc2cccc(F)c2)C1
IC50 [23]: 0.84 µM (active)

CCOc1cccc(NC(=O)c2cccc(NC(=O)C3CCCC3)c2)c1
IC50 [24]: 4.07 µM (active)
IC50 [25]: 0.491 µM (active)

COC(=O)c1cc(Br)cnc1N1CCC(N[C@@H]2CCCC[C@H]2O)CC1
IC50 [26]: 3.36 µM (active)
IC50 (Mu-type opioid receptor): 2.8 µM (active)

N#Cc1cccnc1N1CCC(C(=O)N(CC2CC2)c2ccc(Cl)cc2)CC1
IC50 [27]: 0.067 µM (active)
IC50 (Vasopressin V1b receptor): 14 µM (inactive)
IC50 (Vasopressin V2 receptor): 24.4 µM (inactive)
IC50 [28]: 6.8 µM (active)

O=C1C(Nc2ccccc2)=C(N2CCSCC2)C(=O)c2ccccc21
AC50 [29]: > 70 µM (inactive)
AC50 [30]: 69.3 µM (active)

C[C@@H]1CN([C@@H](C)CO)C(=O)c2cc(NS(C)(=O)=O)ccc2O[C@@H](C)CCCCO[C@H]1CN(C)Cc1ccc(C(F)(F)F)cc1
AC50 [31]: > 30 µM (inactive)

C[C@H]1CN([C@@H](C)CO)C(=O)c2cc(NC(=O)CCCN(C)C)ccc2O[C@@H]1CN(C)Cc1ccc(-c2ccccc2)cc1
AC50 [32]: > 70 µM (inactive)

— ChEMBL document CHEMBL1201862, “PubChem BioAssay data set” (2004)
